Source: patent US6004957A, “Sulfonamide inhibitors of aspartyl protease” (Vertex Pharmaceuticals, Incorporated, priority 1998, dated 1999)

test system: HIVIIIb in CCRM-CEM cells; test: Anti-viral potency in CCRM-CEM cells acutely infected with HIVIIIb (method of Meek et al.), extracellular p24 antigen; type: cell-based, HIV-1; settings: Human immunodeficiency virus 1, HIV replication, Table VIII, read-out: IC90 Range
Description: As discussed above, the novel compounds of the present invention are excellent ligands for aspartyl proteases, particularly HIV-1 and HIV-2 proteases. Accordingly, these compounds are capable of targeting and inhibiting late stage events in HIV replication, i.e., the processing of the viral polyproteins by HIV encoded proteases. […] Because aspartyl protease is essential for the production of mature virions, inhibition of that processing effectively blocks the spread of virus by inhibiting the production of infectious virions, particularly from chronically infected cells. […] Other anti-viral assays have confirmed the potency of these compounds.
Compounds of formula I were tested for their antiviral potency in several virological assays. In the first assay, the compounds were added as a solution in dimethylsulfoxide (DMSO) to a test cell culture of CCRM-CEM cells, a strain of CD4^+ human T-cell lymphoma cells, previously acutely infected with HIVIIIb using standard protocols (see Meek, T. D. et al., "Inhibition of HIV-1 protease in infected T-lymphocytes by synthetic peptide analogues", Nature, 343, p. 90 (1990). Preferred compounds are those which are able to inhibit 90% of viral infectivity at a concentration of 1 μM or less. More preferred compounds are those which are able to inhibit 90% of viral infectivity at a concentration of 100 nM or less.
The effect of the compounds on inhibiting the replication of the virus was measured by determining the HIV extracellular p24 antigen concentration using a commercial enzyme immunoassay (obtained from Coulter Corporation, Hialeah, Fla.).

Row | Compound | IC90 [µM]
1 | COc1ccc(S(=O)(=O)N(CC(C)C)C[C@@H](O)[C@H](Cc2ccccc2)NC(=O)O[C@H]2CCOC2)cc1 [Compound 100, N-((2 syn,3S)-2-Hydroxy-4-phenyl-3-((S)-tetrahydrofuran-3-yloxycarbonylamino)-butyl)-N-isobutyl-4-methoxy-benzenesulfonamide] | < 0.1
2 | COC(=O)N[C@@H](Cc1ccccc1)[C@H](O)CN(CC(C)C)S(=O)(=O)c1ccc(Cl)c(Cl)c1 [Compound 103] | 1 to 10
3 | COC(=O)N[C@@H](Cc1ccccc1)[C@H](O)CN(CC(C)C)S(=O)(=O)c1ccc(F)cc1 [Compound 104] | 1 to 10
4 | C=C(C)COC(=O)N[C@@H](Cc1ccccc1)[C@H](O)CN(CC(C)C)S(=O)(=O)c1ccc(Cl)c(Cl)c1 [Compound 106] | 1 to 10
5 | C=C(C)COC(=O)N[C@@H](Cc1ccccc1)[C@H](O)CN(CC(C)C)S(=O)(=O)c1ccc(F)cc1 [Compound 107] | 1 to 10
6 | CC(C)CN(C[C@@H](O)[C@H](Cc1ccccc1)NC(=O)OC[C@@H]1COC(=O)N1)S(=O)(=O)c1ccc(F)cc1 [Compound 109, 4-Fluoro-N-(2-(syn)-hydroxy-3-((2-oxazolidon-(S)-4-yl)-methoxycarbonylamino)-4-(S)-phenyl-butyl)-N-isobutyl-benzenesulfonamide] | 0.101 to 1
7 | O=C(N[C@@H](Cc1ccccc1)[C@H](O)CN(CC1CCCC1)S(=O)(=O)c1ccc(F)cc1)OCc1cccnc1 [Compound 111] | 1 to 10
8 | CC(C)CN(C[C@@H](O)[C@H](Cc1ccccc1)NC(=O)O[C@H]1CCOC1)S(=O)(=O)c1cccc(S(N)(=O)=O)c1 [Compound 112, Benzene-1,3-disulfonic acid 1-amide 3-((2 syn,3S)-2-hydroxy-4-phenyl-3-(3-(S)-tetrahydrofuran-3-yloxycarbonylamino)-butyl)-isobutyl-amide] | 0.101 to 1
9 | CC(C)CN(C[C@@H](O)[C@H](Cc1ccccc1)NC(=O)O[C@H]1CCOC1)S(=O)(=O)c1ccoc1 [Compound 113] | 0.101 to 1
10 | C=CCOC(=O)N[C@@H](Cc1ccccc1)[C@H](O)CN(CC1CCCC1)S(=O)(=O)c1ccc(F)cc1 [Compound 114, N-((3-Allyloxycarbonylamino)-(2 syn,3S)-2-hydroxy-4-phenyl-butyl)-N-cyclopentylmethyl-4-fluoro-benzenesulfonamide] | 0.101 to 1
11 | CCOC(=O)N[C@@H](Cc1ccccc1)[C@H](O)CN(CC1CCCC1)S(=O)(=O)c1ccc(F)cc1 [Compound 115, N-Cyclopentylmethyl-N-((3-ethoxycarbonylamino)-(2 syn,3S)-2-hydroxy-4-phenyl-butyl)-4-fluoro-benzenesulfonamide] | 0.101 to 1
12 | O=C(N[C@@H](Cc1ccccc1)[C@H](O)CN(CC1CCCC1)S(=O)(=O)c1ccc(Cl)cc1)O[C@H]1CCOC1 [Compound 116, 4-Chloro-N-cyclopentylmethyl-N-((2 syn,3S)-2-hydroxy-4-phenyl-3-((S)-tetrahydrofuran-3-yloxycarbonylamino)-butyl)-benzenesulfonamide] | < 0.1
13 | C=CCOC(=O)N[C@@H](Cc1ccccc1)[C@H](O)CN(CC1CCCC1)S(=O)(=O)c1ccc(Cl)cc1 [Compound 117] | 1 to 10
14 | O=C(N[C@@H](Cc1ccccc1)[C@H](O)CN(CC1CCCC1)S(=O)(=O)c1ccc(Cl)cc1)OCc1cccnc1 [Compound 118] | 0.101 to 1
15 | CCOC(=O)N[C@@H](Cc1ccccc1)[C@H](O)CN(CC(C)C)S(=O)(=O)c1ccc(Cl)c(Cl)c1 [Compound 119] | 1 to 10
16 | CCOC(=O)N[C@@H](Cc1ccccc1)[C@H](O)CN(CC(C)C)S(=O)(=O)c1ccc(F)cc1 [Compound 121] | 1 to 10
17 | C=CCOC(=O)N[C@@H](Cc1ccccc1)[C@H](O)CN(CC(C)C)S(=O)(=O)c1ccc(F)cc1 [Compound 122] | 1 to 10
18 | CC(C)CN(C[C@@H](O)[C@H](Cc1ccccc1)NC(=O)O[C@H]1CCOC1)S(=O)(=O)c1ccc(F)c(F)c1 [Compound 124] | 10 to 40
